Experimental data taken from patent US8791115B2, “Combination of triazine derivatives and insulin sensitisers” (Poxel SAS, priority 2006, dated 2014).
Structures can show the parent of a compound that is named as a salt.

System: diabetic GK rats
Assay: Modulation of glucose levels (glycaemia and oral glucose tolerance test) in diabetic GK rats
Format: in vivo, rat
Conditions: for % variation vs control (glycaemia after 4 days of treatment) / Glycaemia after 4 days of treatment: PO bid for 4 days, alone or combined; for Glycaemia before treatment: baseline before treatment
Protocol: Biological Test: Modulation of Glucose Levels with the Combinations of the Invention with Insulin Sensitisers
The capacity of the compounds of the invention in combination with insulin-sensitising antidiabetic compounds to modify the blood glucose levels is evaluated in vivo in diabetic GK rats.
Alone or in combination, the antidiabetic agents are administered twice a day (bid) to the GK rats for 4 days. The oral glucose tolerance test (OGTT) is performed after the last day of treatment.
OGTT is performed in the morning after 3 hours of fasting by oral administration of a glucose charge of 2 g/kg of body mass. The blood samples are collected from the tail vein at 0; 10; 20; 30; 45; 60; 90 and 120 minutes to determine the glucose levels.
The two compounds were administered alone and in combination. The doses used for the hydrochloride salt of (+)-2-amino-3,6-dihydro-4-dimethylamino-6-methyl-1,3,5-triazine were 50 and 100 mg/kg PO twice daily for 4 days.

[1] = GK rats, triazine salt 100 mg/kg, rosiglitazone 5 mg/kg

| SMILES | fasted plasmatic glucose level (GK rats, 4 days, rosiglitazone 5 mg/kg, triazine salt 100 mg/kg) | glucose tolerance, compared with rosiglitazone (GK rats, OGTT, triazine salt 100 mg/kg vs rosiglitazone 5 mg/kg) | % variation vs control (glycaemia after 4 days of treatment) [1] | Glycaemia after 4 days of treatment [1] | Glycaemia before treatment (GK rats) | % decrease in AUC vs control (OGTT after 4 days of treatment PO bid, triazine salt 100 mg/kg, rosiglitazone 5 mg/kg) | Glycaemia R under the curve (AUC) (OGTT, glucose 2 g/kg oral after 3 h fasting, 0-120 min, after 4 days of treatment PO bid, triazine salt 100 mg/kg, rosiglitazone 5 mg/kg) |
| --- | --- | --- | --- | --- | --- | --- | --- |
| CC1N=C(N)NC(N(C)C)=N1 (single isomer, unassigned; (+)) [(+)-2-amino-3,6-dihydro-4-dimethylamino-6-methyl-1,3,5-triazine hydrochloride] | induced a decrease | better glucose tolerance | −16% | 11.01 ± 0.37 mmol/L | 12.95 ± 0.41 mmol/L | −19.6% | 2688 +/− 99 |
| CN(CCOc1ccc(CC2SC(=O)NC2=O)cc1)c1ccccn1 (stereo not shown) [Rosiglitazone, rosiglitazone, reference compound] |  |  | −19.7% | 10.52 ± 0.84 mmol/L | 12.81 ± 0.27 mmol/L |  |  |
